Experiment [1] relates to Staphylococcus aureus ATCC 6538P. The settings on record: Table 1; control antibiotic, twofold dilutions from 64 µg/mL.
Experiment [2] deals with Enterococcus faecalis ATCC 29212. Conditions: Table 1; control antibiotic, twofold dilutions from 64 µg/mL.
The test system of experiment [3] is Staphylococcus aureus ATCC 6538P. The settings on record: Table 2; Staphylococcus aureus ATCC 6538P.
For experiment [4] the test system is unchanged. In words: microbe, parasite or virus in culture. The settings on record: ATCC6538P.
Experiment [5] shares this test system. Briefly: microbe, parasite or virus in culture. Conditions: ATCC6538P. This is another data set of the same source.

Values after ≈ are worked out from the molar mass of the structure shown.

For the molecule `CN[C@H](CC(C)C)C(=O)N[C@H]1C(=O)N[C@@H](CC(N)=O)C(=O)N[C@H]2C(=O)N[C@H]3C(=O)N[C@H](C(=O)N[C@H](C(=O)O)c4cc(O)cc(O)c4-c4cc3ccc4O)[C@H](O)c3ccc(c(Cl)c3)Oc3cc2cc(c3O[C@@H]2O[C@H](CO)[C@@H](O)[C@H](O)[C@H]2O[C@H]2C[C@](C)(N)[C@H](O)[C@H](C)O2)Oc2ccc(cc2Cl)[C@H]1O` [Vancomycin, reference compound], the “MIC S. aur. (antibiotics)” value in experiment [1] is 0.5 mg/L (≈ 0.345 µM). In addition, the “MIC E. fae. (antibiotics)” value in experiment [2] was found to be 2 mg/L (≈ 1.38 µM). The MBC/MIC in experiment [3] turned out to be 1. Moreover, the MIC in experiment [4] was 0.5 mg/L (≈ 0.345 µM). This molecule also yielded an MBC in experiment [5] of 0.5 mg/L (≈ 0.345 µM).

For the origin of these results see publication PMC12469503, “Exploring the Antimicrobial and Antiviral Properties of Cryptic Peptides from Human Fibrinogen” (International Journal of Molecular Sciences, 2025).
